# Test system: epididymal fat of DIO mice
# Experiment: Satellite DIO mice, day 32: epididymal fat gene expression and BW
# Type: in vivo, C57BL/6J mice
# Conditions: 10 mg/kg, 32 days
# From the text: Total RNA was extracted and purified using RNeasy Mini Kit (QIAGEN, USA). First-strand cDNA was synthesized using High Capacity cDNA Reverse Transcription Kits (Thermo Fisher, USA). The mRNA levels were quantified by an ABI Prism 7900 TaqMan PCR system (Thermo Fisher, USA) according to the manufacturer’s instruction using TaqMan® Universal PCR Mastermix with the primer-probe sets of TaqMan Gene Expression Assays (Thermo Fisher, USA) for the following genes: Ccl2 (chemokine (C-C motif) ligand 2; Mm99999056_m1), Cd68 (CD68 antigen; Mm03047343_m1), Adgre1 (adhesion G protein-coupled receptor E1; Mm00802529_m1), Tnf (tumor necrosis factor; Mm00443258_m1), Il6 (interleukin 6; Mm99999064), Lep (leptin; Mm00434759_m1), Adipoq (adiponectin; Mm00456425_m1), Fads2 ([…]; Mm00517221_m1), Fads1 ([…]; Mm00507605_m1), Ucp1 (uncoupling protein 1; Mm00494069_m1), Elovl3 (elongation of very long chain fatty acids 3; Mm00468164_m1), Cidea (cell death-inducing DNA fragmentation factor, alpha subunit-like effector A; Mm00432554_m1), Otop1 (otopetrin 1; Mm00554705_m1), and Rplp0 (ribosomal protein, large, P0; forward; 5'-[…]-3', reverse; 5'-[…]-3', probe (VIC-5'→3'-TAMRA); 5'-[…]-3'). The Rplp0 mRNA level was used as a reference and relative transcript levels were calculated with the comparative Ct method (2^-ΔΔCT) (Applied Bio-systems).
# In 6 weeks administration study of compound-326 (10 mg/kg), satellite animals were prepared to evaluate the gene expression levels in epididymal fat at the intermediate point (day 32). Mice fed a HFD (D12079B; Research diets, Inc.) from 5 weeks of age were divided into 2 groups at the age of 8 weeks (11 animals per group), and were administered 10 mg/kg compound-326 or vehicle for 32 days. After the treatment period, mice were sacrificed and epididymal fat were harvested for mRNA analysis. […] (B) RT-qPCR was performed in epididymal fat tissue after 32 days treatment. Data are expressed as mean ± SE (n=11). *p≤ 0.05 vs. DIO vehicle by Aspin-Welch test. ¶¶p≤ 0.01 vs. DIO vehicle by Student's t-test.
structure (smiles),measurement,value
"O=C1Cc2c(nc(OCC(F)(F)C(F)(F)F)n(-c3ccc(OCC(F)(F)F)cc3)c2=O)N1 [Compound-326, 2-(2,2,3,3,3-Pentafluoropropoxy)-3-[4-(2,2,2-trifluoroethoxy)phenyl]-5,7-dihydro-3H-pyrrolo[2,3-d]pyrimidine-4,6-dione]",Adgre1 gene expression level in epididymal fat,significantly decreased
same,BW,no significant BW loss
same,Ccl2 gene expression level in epididymal fat,significantly decreased
same,Cd68 gene expression level in epididymal fat,significantly decreased
same,Il6 gene expression level in epididymal fat,significantly decreased
